# Results as given in PubChem BioAssay AID1996.
# Settings: buffer; pH 7.4; 200.0 µM
row,solubility kinetic [µg/mL],SMILES
1,8.8,Cc1ccc(N2CC(C)Cn3c2nc2c3c(=O)[nH]c(=O)n2C)cc1 (stereo not drawn)
2,> 44.3,Cc1ccc(C(=O)OCC(=O)NCc2cccs2)s1
3,55.7,O=[N+]([O-])c1ccc2nc(NS(=O)(=O)c3ccccc3[N+](=O)[O-])sc2c1
4,> 55.4,CCOc1ccccc1C(=O)NC(C(=O)NCCc1ccccn1)C(C)C (stereo not drawn)
5,10.2,COc1ccc(NC(=O)C2Cc3ccccc3O/C2=N\O)cc1 (stereo not drawn)
6,45,Cc1cccc(OCC(=O)NCCNC(=O)c2ccco2)c1
7,> 43.4,CSc1nsc(SCC(=O)N2CCCCC2)n1
8,2.9,O=C(COc1cccnc1[N+](=O)[O-])Nc1cc(Cl)ccc1Cl
9,2.6,O=S(=O)(c1ccc(F)cc1)N1CC=C(c2ccccc2)CC1
10,> 37.4,CC(C)(C)C(=O)NC(CC(=O)O)c1ccccc1 (stereo not drawn)
11,40.1,COc1ccc(CCN=Cc2ccc(O)cc2)cc1OC
12,4.8,Cc1cccc(-c2noc(-c3ccno3)n2)c1
13,3.3,COc1ccccc1OC(C)C(=O)N1CCc2ccccc21 (stereo not drawn)
14,20.4,Cc1cccc(C)c1-n1c(=O)n(Cc2ccccc2)c(=O)c2[nH]cnc21
15,> 51.4,Cc1c(C)n(CC(O)CN(CCO)CCO)c2ccccc12.Cl (stereo not drawn)
16,< 0.6,Cc1ccc(S(=O)(=O)N2CCc3ccccc3C2)cc1
17,> 46.8,O=C(Cn1ncc2c([nH]c3ccccc32)c1=O)N1CCOCC1
18,35.8,CC(NC(=O)c1ccc(Br)o1)c1ccccc1 (stereo not drawn)
19,3.4,CCOC(=O)c1sc(=S)n(-c2ccccc2)c1C
20,39.4,O=C(CNC(=O)c1ccc(Cl)cc1Cl)OC1CCCCC1=O (stereo not drawn)
21,40.1,CN(C)CCNC(=O)c1sc2cccc(F)c2c1Cl
22,> 36.8,CCOC(=O)C1=C(C)Nc2ccccc2N=C1N
23,35.1,CC1(NC(=O)C2CCCCC2)CCS(=O)(=O)C1 (stereo not drawn)
24,> 39.2,COc1ccc(CNC(=O)c2sccc2C)cc1
25,22.2,CCOC(=O)c1ccc(NC(=O)C2CC3CCC2C3)cc1 (stereo not drawn)

# The next lines start with the molecule.
row,SMILES,solubility kinetic [µg/mL]
1,Cc1cccc(C)c1NC(=O)C[n+]1cc(-c2ccccc2)n2c1CCC2.[Cl-],> 57.3
2,O=C(CNC(=O)Cc1cccc2ccccc12)NCc1ccccc1F,36.5
3,CCCCCCCOc1ccc(C2CC(=O)N(C)C2=O)cc1 (stereo not drawn),3.1
4,Clc1ccccc1-c1nc(-c2ccc(Br)o2)no1,< 0.3
5,COc1ccc(NC(=O)COC(=O)CCc2nc3ccccc3c(=O)[nH]2)cc1Cl,59.7
6,O=C1ON=C(c2ccccc2)/C1=C/c1ccccc1,34.7
7,CC1(/[N+]([O-])=C/c2cccc(Cl)c2)CCCCC1=O (stereo not drawn),36.2
8,Cc1cnc(NS(=O)(=O)c2ccc(Cl)cc2)c(Br)c1,> 54.2
9,CC(C)Cc1nnc(NC(=O)CCC(=O)N2CCCCC2)s1,> 48.7
10,O=C(NCc1c(Cl)cccc1Oc1ccccc1)c1ccccc1,0.9
11,CN1CCOCCOCCOCCN(C)C1=S,> 39.4
12,Cc1c(C)n(CC(O)CN2CCN(C)CC2)c2ccccc12 (stereo not drawn),43.3
13,CN(c1ccccc1)S(=O)(=O)c1cccc(NC(=O)c2ccc(Cl)c([N+](=O)[O-])c2)c1,1.8
14,CC(C)Nc1nc(SC(C)C(=O)Nc2ccccc2)nc(N(C)C)n1 (stereo not drawn),26.5
15,O=[N+]([O-])c1ccc(-n2ccnc2)cc1,> 28.4
16,COc1ccc(C(=S)N2CCN(c3cccc(Cl)c3)CC2)cc1,1.2
17,Nc1ccc(C(=O)[O-])cc1.O.[Na+],> 26.6
18,Cc1ccc(-c2noc(=O)n2CC(=O)c2ccc(Cl)cc2)cc1,< 0.4
19,COc1ccc(S(=O)(=O)Nc2noc3ccccc23)cc1OC,> 50.2
20,O=C(CCc1ccccc1)Nc1cc2c3c(c1)CC(=O)N3CCC2,> 48.1
21,COc1ccc(CNC(=S)Nc2ccc(F)c(Cl)c2)cc1OC,3.2
22,Nc1nc(-c2cc(Cl)cc(Cl)c2OC(F)F)cs1,2.3
23,Oc1ccc2ccccc2c1C=NC12CN3CCN(CN(C3)C1)C2,46.5
